Data: a melting point compilation (Tetko et al.; mined from patent text by program, amines drawn as free bases though some values may be those of a salt)

Row | Structure (SMILES) | melting point [°C]
1 | CC(C)Cc1cc([N+](=O)[O-])c2c(c1O)C(=O)c1c(O)c(CC(C)C)cc([N+](=O)[O-])c1C2=O | 198 to 200
2 | O=c1ccc(S(=O)(=O)c2oc3ccccc3c2-c2ccccc2)n[nH]1 | > 220
3 | O=C(O)C1=CC(CF)(CF)Oc2ccc(C(F)(F)C(F)(F)C(F)(F)F)cc21 | 162 to 163
4 | CNC(=O)C1OC(n2cnc3c(NCc4cc(Cl)ccc4OCc4cc(C)no4)ncnc32)C(O)C1NC(=O)OC(C)(C)C (centres undefined) | 135 to 137
5 | ClC(Cl)(Cl)c1cccc2nnsc12 | 67 to 69
6 | Cc1ccc(Cl)cc1N1CCN(c2nc(=O)c3cc(C(F)(F)F)cc([N+](=O)[O-])c3s2)CC1 | 158 to 161
7 | COCCOc1cc2ncnc(NC3=CC(=O)C(Oc4ccc(-n5ccnc5)cc4)=CC3=O)c2cc1OC | 124 to 132
8 | CCOC(=O)c1c(Cl)nc2cscc2c1Cl | 79
9 | CC(C)(O)c1cccc(Oc2cccc(-c3c(Cc4ccccc4)cnc4c(C(F)(F)F)cccc34)c2)c1 | < 80
10 | CC12CCC3C(CC=C4CCCCC43C)C1CC=C2Br (centres undefined) | 109 to 113
11 | CC(C(N)=O)c1ccc2c(c1)C(=O)Cc1cc(F)ccc1S2 (centres undefined) | 224 to 225
12 | O=C(O)c1ccc(OCCCO/N=C/c2cn(Cc3ccccc3)c3ccccc23)cc1O | 182 to 183
13 | COc1cc(Nc2nccc(Nc3ccc(OCCCO)cc3)n2)cc(OC)c1OC | 69
14 | COc1cc2c(=O)c(Cc3cccnc3)cn3c4ccc(Br)cc4c(c1)c23 | 150 to 151
15 | COc1c(C#N)c(C)cc2c1C(C)(C)CCC2(C)C | 71 to 73
16 | CC(C)(C)c1cc(C(=O)c2ccc(C#N)cc2)cc(C(C)(C)C)c1O | 166 to 168
17 | Cc1cnc2c(c1)CCCC2(C)C(N)=S (centres undefined) | 164
18 | O=C(OC1c2ccccc2C(=O)N1c1ccc2ccc(Cl)nc2n1)N1CCN(C=S)CC1 (centres undefined) | 295
19 | COc1ccc(C(=O)[C@H]2CC=CC[C@H]2C(=O)O)cc1Br (relative stereo) | 201 to 204
20 | Fc1ccc(-c2ncc(Br)cn2)cc1 | 156
21 | CN(Cc1ccc(NC(=O)C2=Cc3cc(Br)ccc3N(C=O)CC2)cc1)C1CCOCC1 | 173 to 175
22 | COc1ccc(-c2cc3ccc(OC)cc3[nH]2)cc1 | 228 to 230
23 | C[C@@H](n1cnc2cc(-c3ccc(N)cc3)sc2c1=O)[C@](O)(Cn1cncn1)c1ccc(F)cc1F | 184 to 186
24 | CN1C(=O)C(NC(=O)Nc2cccc(F)c2)N=C(c2ccccc2)c2ccccc21 (centres undefined) | 252 to 254
25 | Clc1ccc(C2OC(c3ccncc3)=Nc3ccc(Cl)cc32)cc1 (centres undefined) | 140 to 141
26 | COc1cccc2c1nc(C(F)F)n2-c1nc(N2CCOCC2)c2ncn(-c3cncnc3)c2n1 | 248 to 251
27 | CCCCCC(=O)CCn1ccnc1 | 104 to 106
28 | CC(=NOCCO)c1ccc(-c2ccc(F)cc2)cc1 | 133 to 134

Row | Structure (SMILES) | melting point [°C]
29 | c1ccc(COc2ccc(COc3ccc(CCCn4ccnc4)cc3)cn2)cc1 | 84 to 85
30 | COc1ccc(-c2cc(OC3SCC(OC(C)=O)C(OC(C)=O)C3OC(C)=O)ccn2)cc1 (centres undefined) | 113 to 114
31 | CC1C[C@@H]2NC[C@@H](NC(=O)OC(C)(C)C)[C@@H]2O1 (relative stereo) | 69 to 72
32 | Cc1ccc(Cn2cc(C(=O)C(=O)O)c3cc(-c4ccccc4)ccc32)cc1 | 195 to 196
33 | C[C@@H](Nc1ncnc2[nH]c(-c3ccc(CN4CCN(C)CC4)cc3)cc12)c1ccccc1 | 248 to 250
34 | CCOCCCN(C)Cc1ccc(NC(=O)C2=Cc3cc(-c4ccc(OCC)cc4)ccc3S(=O)(=O)CC2)cc1 | 197 to 198
35 | COc1cc(Cl)c2[nH]c(=O)[nH]c(=O)c2c1OC | 282 to 284
36 | CC(C)(C)OC(=O)C(=NO)C1=Nc2ccc(Cl)cc2C(c2ccccc2F)=NC1 | 212 to 214
37 | CC(C)(C)C(O)CN1C(=O)C(N)C(=O)N(c2ccccc2F)c2ccccc21 (centres undefined) | 104 to 105
38 | N#Cc1ccc(Cn2cc(C=CC=O)nn2)cc1 | 152 to 155
39 | O=C(Nc1ccc2nc(CN3CCCC3)ccc2c1)c1ccc(-c2ccc(Cl)cc2)nc1 | 225 to 227
40 | CC(C)CCCC(C)C1CCC2(C#N)C3C(O)CC4C(C)(C)C(OC(=O)c5ccccc5)CCC4(C)C3CCC12C (centres undefined) | 270 to 271
41 | CSc1cc2c(N3CCc4ccc(Cl)cc43)ncnc2cc1Cl | 167 to 168
42 | CS(=O)(=O)NCCCCCCCCCCCCn1c2c(c3ccccc3c1=O)C(=O)c1ccccc1-2 | 113 to 117
43 | COc1ccc(C2CC(c3ccccc3)=NN2c2ccc(S(N)(=O)=O)cc2)cc1 (centres undefined) | 111
44 | O=C1C(Br)=C(Br)C(=O)c2ncccc21 | 243 to 245
45 | CCCCCCCCCCCCCCC(=O)NCCCN(C)C | 46 to 48
46 | COc1ncc(C=O)cc1Br | 94 to 95
47 | O=[N+]([O-])c1cc(OC2CCCC2)c(Cl)cc1F | 58 to 62.6
48 | O=C1CCC(N2Cc3c(OCc4ccc(CN5CCN(C(=O)C6CC6)CC5)cc4)cccc3C2=O)C(=O)N1 (centres undefined) | 233 to 235
49 | CCc1[nH]n(C2CCCC2)c2nc(C3CCNC4CCCCC43)nc(=O)c1-2 (centres undefined) | > 300
50 | CC(C)(C)OC(=O)N(CCCC(=O)NO)Cc1cc2nc(-c3cccc4[nH]ncc34)nc(N3CCOCC3)c2s1 | 149 to 152
51 | COC(=S)CCc1cc(Oc2ccc(C(F)(F)F)cc2Cl)ccc1[N+](=O)[O-] | 61 to 63
52 | CCCNC(=O)C1C=C2CC=C(OC)C=C2N1CCNC(C)=O (centres undefined) | 127 to 128
53 | CCCc1c(OCCCOc2ccc(Cl)c3ccccc23)ccc2c1OC(CCC(=O)O)(CCC(=O)O)CC2=O | 170 to 171
54 | CSCCSC1=C(O)CC(C)(C)CC1=O | 57 to 59
55 | Cc1ccoc1C(=O)Nc1c(C)cc(N2CCCOCC2)nc1N1CC[C@@H](F)C1 | 93 to 96

Results, then the molecule that gave them:

Row | melting point [°C] | Structure (SMILES)
56 | 124 to 125 | CCOC(=O)CN(c1cccc2cc(-c3nccs3)n(COC)c12)S(=O)(=O)c1cccs1
57 | 128 to 131 | O=C(Nc1ccc(Cl)cc1)N(CCCN1CCC(Cc2ccccc2)CC1)c1ccc(Cl)c(Cl)c1
58 | 134 to 137 | OCc1ccc2cc(Cl)ccc2c1
59 | 195 to 197 | Cc1sc(N)c(C(=O)c2cccc3ccccc23)c1C
60 | 166 to 168 | Cc1cccc2[nH]c(S(=O)Cc3cccn4ccnc34)nc12 (centres undefined)
61 | 93 | CC(C)(N)C1CN([C@@H]2Cc3ccccc3[C@H]2Oc2ccc(C#N)cc2Cl)C1
62 | 202 to 203 | Cc1nnc(-c2ccnc(NC(=O)NCc3ccccn3)c2)o1
63 | 38 to 39 | COc1cc(C)ccc1OCc1ccccc1
64 | 219 to 220 | CC1(C)Oc2ccc(S(=O)(=O)C(F)(F)F)cc2[C@@H](n2ccccc2=O)[C@@H]1O (relative stereo)
65 | 197 to 198 | NS(=O)(=O)c1ccc(NC(=O)CNc2ccccc2)c(F)c1
66 | 135 | CCOC(=O)c1cnc2cc(F)c(F)cc2c1
67 | 145 to 150 | O=C(O)c1ccccc1C=Cc1cccc(Br)c1
68 | 42 | COCC(C)OC(=O)c1ccc([N+](=O)[O-])cc1[N+](=O)[O-] (centres undefined)
69 | 106 to 108 | O=C(Cc1ccccc1)c1ccc(OCc2ccccc2)cc1O
70 | 228 | COc1ccc(-c2[nH]nc3c2C(=O)c2c(NC(=O)Cc4ccc(NC(=O)CN)cc4)cccc2-3)cc1
71 | 184 to 186 | NNC(=O)Nc1ccc(O)cc1
72 | 235 to 237 | O=c1c2c(n(-c3ccccc3)c3ncccc13)CCC2
73 | 119 to 121 | CCOC(=O)c1ccc2cc(I)ccc2n1
74 | 126 to 128 | CCCn1c(=O)c2c(N)n(CCCl)nc2n(Cc2ccccc2)c1=O
75 | 195 to 196 | NC(=O)c1ccccc1NC(=O)c1ccc(-n2nc(C(F)(F)F)cc2C(F)(F)F)cc1
76 | 65 to 68 | CCCCCOC(=O)c1cc(NC(=O)C2=C(C)OCCS2)ccc1Cl
77 | 90 to 94 | COC(=O)CCc1cc2cc(Cl)ccc2n1S(=O)(=O)c1ccc(C(C)C)cc1

Row | melting point [°C] | Structure (SMILES)
78 | 193 to 195 | COC(=O)Nc1cccc(C)c1CNc1cc(C(=O)N(C)C)cc2c1nc(C)n2C
79 | 200 to 201 | CCCCn1c2c(c3ccccc3c1=O)C(=O)c1cc3c(cc1-2)OCO3
80 | 66.8 | COCCOC(=O)c1cncn1C1CCCc2ccccc21 (centres undefined)
81 | 159 to 160 | CC(=O)OCC1Cc2cc(S(=O)(=O)N(C)C)c(Cl)c(Cl)c2O1 (centres undefined)
82 | 177 to 178 | COC(=O)c1ccccc1-c1ccc(C(=C2CC(C)(C)CC(C)(C)C2)c2ccc(O)cc2)cc1
83 | 126 | Cc1ccc(S(N)(=O)=O)cc1C(O)CCl (centres undefined)
84 | 190 to 191 | CN1CCC(O)(c2ccccc2C(O)c2ccccc2)CC1 (centres undefined)
85 | 196 to 198 | COc1ccccc1S(=O)(=O)c1ccc2c(c1)[C@@H](N1CCCC1=O)[C@H](O)C(C)(C)O2 (relative stereo)
86 | 123 to 124 | CCn1c2cc(C)ccc2c2c3ccccc3ccc21
87 | 54 to 55.5 | O=C(O)CCCCCNC(=O)OCc1ccccc1
88 | 24 to 25 | CCOC(=O)c1ccc(OCCCCl)cc1
89 | 126 to 127 | CCCCNC(=O)ON1C(C)(C)CC(OC(=O)c2ccccc2)CC1(C)C
90 | 152 to 153 | Cc1oc(-c2ccccc2)nc1CCc1nc(COc2ccccc2CC(=O)O)cs1
91 | 159 | CC(O)c1nc(N)nc(N)c1-c1ccc(Cl)cc1 (centres undefined)
92 | 119 to 121 | CN(C)CC(=O)Nc1ccccc1N
93 | 198 to 203 | COc1ccccc1NC(=O)Nc1nc(N2CCOCC2)nc(N(CCC(=O)O)Cc2ccc(Cl)c(Cl)c2)n1
94 | 92 to 94 | CC(=O)CN1C(=O)c2ccccc2C1=O
95 | 63 | O=C(Cl)N1CC=C(c2ccccc2)CC1
96 | 124 to 127 | CCOC(=O)C1=C(C)NC(c2nccn2C)=NC1c1ccccc1Cl (centres undefined)
97 | 120 to 121 | CC(=O)NCc1ccc(CN2CCN(c3ncccn3)CC2)cc1
98 | 306 to 308 | NS(=O)(=O)c1cc2ccc(=O)[nH]c2s1
99 | 201 to 202 | COCCNC(=O)c1cc(-c2ccccc2)c(=O)n2ccc3ccsc3c12
